Results from PubChem BioAssay (NCI).
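In this assay, cells in 96-well plates receive the compound at five concentrations for 48 hours. Endpoints are linearly interpolated between the surrounding concentrations. GI50: concentration for 50% inhibition of growth. TGI: concentration producing complete growth inhibition.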

Tests used:
Test in all cases: inhibition of tumour cell growth, NCI panel, 48 h
786-0 renal = tested on: 786-0 renal
A498 renal = tested on: A498 renal
A549 NSCLC = tested on: A549 NSCLC
ACHN renal = tested on: ACHN renal
CAKI-1 renal = tested on: CAKI-1 renal
CCRF-CEM leukemia = tested on: CCRF-CEM leukemia
COLO 205 colon = tested on: COLO 205 colon
DU-145 prostate = tested on: DU-145 prostate
EKVX NSCLC = tested on: EKVX NSCLC
HCC-2998 colon = tested on: HCC-2998 colon
HCT-116 colon = tested on: HCT-116 colon
HCT-15 colon = tested on: HCT-15 colon
HL-60(TB) leukemia = tested on: HL-60(TB) leukemia
HOP-62 NSCLC = tested on: HOP-62 NSCLC
HS 578T breast = tested on: HS 578T breast
HT29 colon = tested on: HT29 colon
IGROV1 ovarian = tested on: IGROV1 ovarian
K-562 leukemia = tested on: K-562 leukemia
KM12 colon = tested on: KM12 colon
LOX IMVI melanoma = tested on: LOX IMVI melanoma
M14 melanoma = tested on: M14 melanoma
MALME-3M melanoma = tested on: MALME-3M melanoma
MCF7 breast = tested on: MCF7 breast
MDA-MB-231 breast = tested on: MDA-MB-231 breast
MDA-MB-435 = tested on: MDA-MB-435
MDA-N = tested on: MDA-N
MOLT-4 leukemia = tested on: MOLT-4 leukemia
NCI-H226 lung = tested on: NCI-H226 lung
NCI-H23 lung = tested on: NCI-H23 lung
NCI-H460 lung = tested on: NCI-H460 lung
NCI-H522 lung = tested on: NCI-H522 lung
NCI/ADR-RES ovarian = tested on: NCI/ADR-RES ovarian
OVCAR-3 ovarian = tested on: OVCAR-3 ovarian
OVCAR-4 ovarian = tested on: OVCAR-4 ovarian
OVCAR-5 ovarian = tested on: OVCAR-5 ovarian
OVCAR-8 ovarian = tested on: OVCAR-8 ovarian
PC-3 prostate = tested on: PC-3 prostate
RPMI-8226 leukemia = tested on: RPMI-8226 leukemia
RXF 393 renal = tested on: RXF 393 renal
SF-268 CNS = tested on: SF-268 CNS
SF-295 CNS = tested on: SF-295 CNS
SF-539 CNS = tested on: SF-539 CNS
SK-MEL-2 melanoma = tested on: SK-MEL-2 melanoma
SK-MEL-28 melanoma = tested on: SK-MEL-28 melanoma
SK-MEL-5 melanoma = tested on: SK-MEL-5 melanoma
SK-OV-3 ovarian = tested on: SK-OV-3 ovarian
SN12C renal = tested on: SN12C renal
SNB-19 CNS = tested on: SNB-19 CNS
SNB-75 CNS = tested on: SNB-75 CNS
SR leukemia = tested on: SR leukemia
SW-620 colon = tested on: SW-620 colon
T-47D breast = tested on: T-47D breast
TK-10 renal = tested on: TK-10 renal
U251 CNS = tested on: U251 CNS
UACC-257 melanoma = tested on: UACC-257 melanoma
UACC-62 melanoma = tested on: UACC-62 melanoma
UO-31 renal = tested on: UO-31 renal

## O=C1[C@H](c2ccccc2)C2c3ccccc3CCN12 (some centres not stated)
786-0 renal
  GI50: > 100 µM
  TGI: > 100 µM
A498 renal
  GI50: > 100 µM
  TGI: > 100 µM
A549 NSCLC
  GI50: > 100 µM
  TGI: > 100 µM
ACHN renal
  GI50: > 100 µM
  TGI: > 100 µM
CAKI-1 renal
  GI50: > 100 µM
  TGI: > 100 µM
CCRF-CEM leukemia
  GI50: > 100 µM
  TGI: > 100 µM
COLO 205 colon
  GI50: > 100 µM
  TGI: > 100 µM
DU-145 prostate
  GI50: > 100 µM
  TGI: > 100 µM
EKVX NSCLC
  GI50: > 100 µM
  TGI: > 100 µM
HCC-2998 colon
  GI50: > 100 µM
  TGI: > 100 µM
HCT-116 colon
  GI50: > 100 µM
  TGI: > 100 µM
HCT-15 colon
  GI50: > 100 µM
  TGI: > 100 µM
HL-60(TB) leukemia
  GI50: > 100 µM
  TGI: > 100 µM
HOP-62 NSCLC
  GI50: > 100 µM
  TGI: > 100 µM
HS 578T breast
  GI50: > 100 µM
  TGI: > 100 µM
HT29 colon
  GI50: > 100 µM
  TGI: > 100 µM
IGROV1 ovarian
  GI50: > 100 µM
  TGI: > 100 µM
K-562 leukemia
  GI50: > 100 µM
  TGI: > 100 µM
KM12 colon
  GI50: > 100 µM
  TGI: > 100 µM
LOX IMVI melanoma
  GI50: > 100 µM
  TGI: > 100 µM
M14 melanoma
  GI50: > 100 µM
  TGI: > 100 µM
MALME-3M melanoma
  GI50: > 100 µM
  TGI: > 100 µM
MCF7 breast
  GI50: > 100 µM
  TGI: > 100 µM
MDA-MB-231 breast
  GI50: > 100 µM
  TGI: > 100 µM
MDA-MB-435
  GI50: > 100 µM
  TGI: > 100 µM
MDA-N
  GI50: > 100 µM
  TGI: > 100 µM
MOLT-4 leukemia
  GI50: > 100 µM
  TGI: > 100 µM
NCI-H226 lung
  GI50: > 100 µM
  TGI: > 100 µM
NCI-H23 lung
  GI50: > 100 µM
  TGI: > 100 µM
NCI-H460 lung
  GI50: > 100 µM
  TGI: > 100 µM
NCI-H522 lung
  GI50: > 100 µM
  TGI: > 100 µM
NCI/ADR-RES ovarian
  GI50: > 100 µM
  TGI: > 100 µM
OVCAR-3 ovarian
  GI50: > 100 µM
  TGI: > 100 µM
OVCAR-4 ovarian
  GI50: > 100 µM
  TGI: > 100 µM
OVCAR-5 ovarian
  GI50: > 100 µM
  TGI: > 100 µM
OVCAR-8 ovarian
  GI50: > 100 µM
  TGI: > 100 µM
PC-3 prostate
  GI50: > 100 µM
  TGI: > 100 µM
RPMI-8226 leukemia
  GI50: > 100 µM
  TGI: > 100 µM
RXF 393 renal
  GI50: > 100 µM
  TGI: > 100 µM
SF-268 CNS
  GI50: > 100 µM
  TGI: > 100 µM
SF-295 CNS
  GI50: > 100 µM
  TGI: > 100 µM
SF-539 CNS
  GI50: > 100 µM
  TGI: > 100 µM
SK-MEL-2 melanoma
  GI50: > 100 µM
  TGI: > 100 µM
SK-MEL-28 melanoma
  GI50: > 100 µM
  TGI: > 100 µM
SK-MEL-5 melanoma
  GI50: > 100 µM
  TGI: > 100 µM
SK-OV-3 ovarian
  GI50: > 100 µM
  TGI: > 100 µM
SN12C renal
  GI50: > 100 µM
  TGI: > 100 µM
SNB-19 CNS
  GI50: > 100 µM
  TGI: > 100 µM
SNB-75 CNS
  TGI: > 100 µM
SR leukemia
  GI50: > 100 µM
  TGI: > 100 µM
SW-620 colon
  GI50: > 100 µM
  TGI: > 100 µM
T-47D breast
  GI50: > 100 µM
  TGI: > 100 µM
TK-10 renal
  GI50: > 100 µM
  TGI: > 100 µM
U251 CNS
  GI50: > 100 µM
  TGI: > 100 µM
UACC-257 melanoma
  GI50: > 100 µM
  TGI: > 100 µM
UACC-62 melanoma
  GI50: > 100 µM
  TGI: > 100 µM
UO-31 renal
  TGI: > 100 µM
